Data: ChEMBL document CHEMBL1136232, “Novel inhibitors of an emerging target in Mycobacterium tuberculosis; substituted thiazolidinones as inhibitors of dTDP-rhamnose synthesis” (2003)
≈ marks a conversion by molar mass, not a printed value. Calls of active or inactive are those of the source. No cut-off for these calls is given here.

Legend:
[1] = system: Mycobacterium tuberculosis; assay: Percentage inhibition against Mycobacterium tuberculosis at a concentration of 20 uM; type: functional
[2] = system: Mycobacterium tuberculosis; assay: Inhibitory activity against Mycobacterium tuberculosis H37Ra; type: functional
[3] = system: Mycolicibacterium smegmatis; assay: Percentage inhibition against Rm1BCD at 20 uM
[4] = system: Mycolicibacterium smegmatis; assay: Percentage inhibition against Rm1C at 20 uM; NA is not active
[5] = system: Mycolicibacterium smegmatis; assay: Percentage inhibition against Rm1D at 20 uM
[6] = system: Mycolicibacterium smegmatis; assay: Percentage inhibition against Rm1C at 20 uM
[7] = system: Mycolicibacterium smegmatis; assay: Percentage inhibition against Rm1D at 20 uM; NA is not active

Compound	inhibition at 20 µM [1]	MIC [2]	further results
CCOC(=O)C(C(C)C)N1C(=O)C(C)SC1c1ccc(-c2ccccc2)cc1 (stereo unspecified)	52.5%	50 µg/mL (≈ 126 µM)	–
CCn1c2ccccc2c2cc(C3SC(C)C(=O)N3C(Cc3c[nH]c4ccccc34)C(=O)O)ccc21 (stereo unspecified)	70.5%	50 µg/mL (≈ 100 µM)	–
COc1cc(C2SC(C)C(=O)N2C(Cc2ccc([N+](=O)[O-])cc2)C(=O)O)cc(OC)c1O (stereo unspecified)	–	25 µg/mL (≈ 54.1 µM)	inhibition [3]: 42%; inhibition [4]: inactive; inhibition [5]: 71%
CCOC(=O)C(C)N1C(=O)CSC1c1cccc(Oc2ccccc2)c1 (stereo unspecified)	51%	50 µg/mL (≈ 135 µM)	–
COC(=O)C(CCSC)N1C(=O)CSC1c1ccc(N(C)C)cc1 (stereo unspecified)	100%	> 200 µg/mL	–
CCOC(=O)CCC(C(=O)OCC)N1C(=O)CSC1c1cccc(Oc2ccccc2)c1 (stereo unspecified)	64%	50 µg/mL (≈ 109 µM)	–
CCn1c2ccccc2c2ccc(C3SCC(=O)N3C(Cc3c[nH]c4ccccc34)C(=O)OC)cc21 (stereo unspecified)	–	> 200 µg/mL	inhibition [6]: 48%; inhibition [7]: inactive; inhibition [3]: 45%
CCOC(=O)C(C(C)C)N1C(=O)C(C)SC1c1cccc(OC)c1O (stereo unspecified)	60%	25 µg/mL (≈ 68 µM)	–
CC[C@H](C)C(C(=O)OC)N1C(=O)CSC1c1ccc(N(C)C)cc1 (stereo partly specified)	110%	> 200 µg/mL	–
O=C(O)C(Cc1cc2ccccc2[nH]1)N1C(=O)CSC1c1ccc(-c2ccccc2)cc1 (stereo unspecified)	66.5%	50 µg/mL (≈ 113 µM)	–
CCOC(=O)C(C(C)C)N1C(=O)C(C)SC1c1ccc2c(c1)c1ccccc1n2CC (stereo unspecified)	52%	25 µg/mL (≈ 57 µM)	–
